{"source": "patent US20220226382A1", "about": "“Nutritional Composition” (MORINAGA MILK INDUSTRY CO., LTD., priority 2019, published 2022)", "tested_on": "simian rotavirus SA11 strain", "test": "Plaque assay: antiviral action against simian rotavirus in MA104 cells (infection-suppressing ratio)", "type": "cell-based", "details": "human milk oligosaccharide alone, n=3", "method": "The simian rotavirus SA11 strain (Nihon Bioresearch Inc.) was inoculated to the MA104 cells (Sigma-Aldrich) of African green monkey kidney maintained in a minimum essential medium (Sigma-Aldrich, henceforth referred to simply as “medium”). The simian rotavirus SA11 strain, for example, can be obtained from American Type Culture Collection (ATCC) as ATCC VR-1565. To the medium, lactoferrin (LF) and/or the human milk oligosaccharide(s) shown below were added beforehand alone or in combination at the following concentrations, respectively (n=3).\nLF (produced by Morinaga Milk Industry Co., Ltd.): 0, 0.1 or 1.0 mg/mL\n2′-Fucosyllactose (2′-FL, Funakoshi Co., Ltd.): 0, 0.1, 0.5, or 2.5 mg/mL\n3-Fucosyllactose (3-FL, Funakoshi Co., Ltd.): 0, 0.1, or 0.5 mg/mL\n3′-Sialyllactose (3′-SL, Funakoshi Co., Ltd.): 0, 0.1, or 0.5 mg/mL\n6′-Sialyllactose (6′-SL, Funakoshi Co., Ltd.): 0, 0.1, or 0.5 mg/mL\nHuman milk oligosaccharides (mixture) (HMO mix, mixture of 2′-FL (2.5 mg/mL), 3-FL (0.5 mg/mL), 3′-SL (0.25 mg/mL) and 6′-SL (0.5 mg/mL))\nThe amount of 1.0 mg/mL corresponds to 0.1 mass % in mass percentage.\nDegree of infection was evaluated based on the number of “plaques” formed when the cells were infected with the virus. Specifically, the antiviral effects of lactoferrin and human milk oligosaccharides were evaluated based on “plaque-suppressing ratio (%)”, i.e., the ratio of “plaque counts observed with lactoferrin and/or human milk oligosaccharide(s) supplementation” to “plaque counts observed without these supplementation”. Plaque-suppressing ratio was then regarded as “infection-suppressing ratio (%)”.", "data": [{"compound": "CC(=O)N[C@H]1[C@H]([C@H](O)[C@H](O)CO)O[C@@](OC[C@H]2O[C@@H](O[C@H]3[C@H](O)[C@@H](O)[C@H](O)O[C@@H]3CO)[C@H](O)[C@@H](O)[C@H]2O)(C(=O)O)C[C@@H]1O", "note": "[6′-SL, 6′-Sialyllactose]", "values": [{"measurement": "infection-suppressing ratio", "setting": "0.1 mg/mL", "value": 4.5, "unit": "%"}, {"measurement": "infection-suppressing ratio", "setting": "0.5 mg/mL", "value": 23, "unit": "%"}]}, {"compound": "3-Fucosyllactose [3-FL]", "values": [{"measurement": "infection-suppressing ratio", "setting": "0.1 mg/mL", "value": 6.6, "unit": "%"}, {"measurement": "infection-suppressing ratio", "setting": "0.5 mg/mL", "value": 21, "unit": "%"}]}, {"compound": "2′-Fucosyllactose [2′-FL]", "values": [{"measurement": "infection-suppressing ratio", "setting": "0.1 mg/mL", "value": 1.2, "unit": "%"}]}, {"compound": "CC(=O)N[C@H]1[C@H]([C@H](O)[C@H](O)CO)O[C@@](O[C@H]2[C@@H](O)[C@@H](CO)O[C@@H](O[C@H]3[C@H](O)[C@@H](O)C(O)O[C@@H]3CO)[C@@H]2O)(C(=O)O)C[C@@H]1O", "note": "(stereo partly drawn) [3′-SL, 3′-Sialyllactose]", "values": [{"measurement": "infection-suppressing ratio", "setting": "0.5 mg/mL", "value": 33, "unit": "%"}]}]}
